Holding throughout (type): cell-based
The target of one test is T1, Y5R (Homo sapiens, UniProt Q15761).
T1 sequence (Q15761 1-445): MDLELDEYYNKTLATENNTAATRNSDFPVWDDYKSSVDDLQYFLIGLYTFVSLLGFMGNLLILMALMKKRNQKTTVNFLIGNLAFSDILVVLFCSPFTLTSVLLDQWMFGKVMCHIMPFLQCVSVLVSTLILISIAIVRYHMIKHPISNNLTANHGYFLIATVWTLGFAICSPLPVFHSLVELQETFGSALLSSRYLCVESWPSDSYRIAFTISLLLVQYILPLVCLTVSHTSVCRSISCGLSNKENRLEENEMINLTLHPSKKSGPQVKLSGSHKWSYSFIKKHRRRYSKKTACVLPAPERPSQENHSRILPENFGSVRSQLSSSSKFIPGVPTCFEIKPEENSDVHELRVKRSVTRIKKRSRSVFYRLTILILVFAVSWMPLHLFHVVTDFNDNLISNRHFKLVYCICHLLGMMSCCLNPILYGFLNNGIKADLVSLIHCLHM
As to the kind of experiment: CaFlux Assay (FLIPR), Y5R.

Another test addresses Y4R (Homo sapiens, UniProt P50391). The test is described as follows: CaFlux Assay (FLIPR), Y4R.
The target of test [1] is T2, hNPY2R (Homo sapiens, UniProt P49146).
T2 sequence (P49146 1-381): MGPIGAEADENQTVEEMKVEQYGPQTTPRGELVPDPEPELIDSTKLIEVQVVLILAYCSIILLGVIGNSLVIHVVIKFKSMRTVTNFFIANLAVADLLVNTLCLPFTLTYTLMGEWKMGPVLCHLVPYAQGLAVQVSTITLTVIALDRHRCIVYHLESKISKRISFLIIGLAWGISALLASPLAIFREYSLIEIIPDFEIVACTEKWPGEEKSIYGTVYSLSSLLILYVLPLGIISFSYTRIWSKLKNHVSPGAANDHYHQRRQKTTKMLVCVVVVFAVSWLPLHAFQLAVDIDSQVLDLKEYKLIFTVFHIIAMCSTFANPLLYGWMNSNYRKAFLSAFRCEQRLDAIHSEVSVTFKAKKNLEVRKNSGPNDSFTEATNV
As to the kind of experiment: CaFlux Assay (FLIPR), Y2R. More on the design: expressed in transfected cells; host or cells: HEK-293 stably transfected with G protein chimera Gαqi9. The procedure:
HEK-293 cells were stably transfected with the G protein chimera Gαqi9 and the hygromycin-B resistance gene were further transfected with the human NPY2 receptor and G418 antibiotic selection. Following selection in both hygromycin-B and G418, individual clones were assayed for their response to PYY. The transfected cells were cultured in DMEM medium supplemented with 10% fetal bovine serum, 50 μg/mL hygromycin-B, 2 mM glutamine, 100 U/mL penicillin, 100 μg/mL streptomycin and 250 μg/mL G418. Cells are harvested with trypsin-EDTA and counted using ViaCount reagent. The cell suspension volume is adjusted to 4.8×10^5 cells/mL with complete growth media. Aliquots of 25 μL are dispensed into 384 well Poly-D Lysine coated black/clear microplates (Falcon) and the microplates were placed in a 37° C. CO2 incubator overnight. Loading Buffer (Calcium-3 Assay Kit, Molecular Devices) was prepared by dissolving the contents of one vial (Express Kit) into […] Hank's Balanced Salt Solution containing 20 mM HEPES and 5 mM probenecid. Aliquots of 25 μL of diluted dye were dispensed into the cell plates and the plates are then incubated for 1 hour at 37° C. During the incubation, test compounds were prepared at 3.5× the desired concentration in HBSS (20 mM HEPES)/0.05% BSA/1% DMSO and transferred to a 384-well plate for use on FLIPR. After incubation, both the cell and compound plates were brought to the FLIPR and 20 μL of the diluted compounds were transferred to the cell plates by the FLIPR. During the assay, fluorescence readings were taken simultaneously from all 384 wells of the cell plate every 1.5 seconds. Five readings were taken to establish a stable baseline, and then 20 μL of sample was rapidly (30 μL/sec) and simultaneously added to each well of the cell plate. The fluorescence was continuously monitored before, during and after sample addition for a total elapsed time of 100 seconds. Responses (increase in peak fluorescence) in each well following addition were determined. The initial fluorescence reading from each well, prior to ligand stimulation, was used as a zero baseline value for the data from that well. The responses are expressed as % of maximal response of the positive control.

A further test concerns the target T3, Y1R (Homo sapiens, UniProt P25929).
T3 sequence (P25929 1-384): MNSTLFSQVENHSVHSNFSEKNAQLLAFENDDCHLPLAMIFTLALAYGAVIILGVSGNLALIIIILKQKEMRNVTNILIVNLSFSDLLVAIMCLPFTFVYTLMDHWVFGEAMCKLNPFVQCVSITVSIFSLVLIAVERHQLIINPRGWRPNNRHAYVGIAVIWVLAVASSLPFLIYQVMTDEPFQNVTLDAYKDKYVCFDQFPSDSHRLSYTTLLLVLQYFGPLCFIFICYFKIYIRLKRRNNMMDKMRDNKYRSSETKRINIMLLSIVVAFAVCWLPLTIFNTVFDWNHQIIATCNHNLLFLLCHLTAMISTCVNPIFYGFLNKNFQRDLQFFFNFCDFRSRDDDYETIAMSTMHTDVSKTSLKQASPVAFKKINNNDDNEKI
As to the kind of experiment: CaFlux Assay (FLIPR), Y1R.

Test [2] concerns the target T2, hNPY2R. As to the kind of experiment: cAMP Agonist Assay, HEK293/hNPY2R. The arrangement: expressed in transfected cells; host or cells: HEK293/hNPY2R (G418 selection). On the procedure: In this example, the following materials were used: 384-well plate; Tropix cAMP-Screen Kit; cAMP ELISA System (Applied Biosystems, cat. #T1505; CS 20000); Forskolin (Calbiochem cat. # 344270); cells: HEK293/hNPY2R; growth medium: Dulbecco's modified eagle medium (D-MEM, Gibco); 10% Fetal bovine serum (FBS, Gibco), heat-inactivated; 1% Penicillin/Streptomycin (Pen 10000 unit/mL: Strep […], Gibco); […] G418 (Geneticin, Gibco cat. # 11811-031); and plating medium: DMEM/F12 w/o phenol red (Gibco); 10% FBS (Gibco, cat. # 10082-147), heat-inactivated; 1% Penicillin/Streptomycin (Gibco, cat. # 15140-122); […] G418 (Geneticin, Gibco, cat. # 11811-031).
On the first day, medium was discarded, and the monolayer cells were washed with 10 mL PBS per flask (T225). After decanting with PBS, 5 mL VERSENE (Gibco, cat #1504006) was used to dislodge the cells (5 min @37 C). The flask was gently tapped and the cell suspension was pooled. Each flask was rinsed with 10 mL plating medium and centrifuged at 1000 rpm for 5 min. The suspension was pooled and counted. The suspension was resuspended in plating medium at a density of 2.0×10^5 cells/mL for HEK293/hNPY2R. 50 microliters of cells (HEK293/hNPY2R-10,000 cells/well) were transferred into the 384-well plate using Multi-drop dispenser. The plates were incubated at 37° C. overnight. On the second day, the cells were checked for 75-85% confluence. The media and reagents were allowed to come to room temperature. Before the dilutions were prepared, the stock solution of stimulating compound in dimethyl sulphoxide (DMSO, Sigma, cat #D2650) was allowed to warm up to 32 C for 5-10 min. The dilutions were prepared in DMEM/F12 with 0.5 mM 3-Isobutyl-1-methylxanthine (IBMX, Calbiochem, cat #410957) and 0.5 mg/mL BSA. The final DMSO concentration in the stimulation medium was 1.1% with Forskolin concentration of 5 μM. The cell medium was tapped off with a gentle inversion of the cell plate on a paper towel. 50 μL of stimulation medium was placed per well (each concentration done in four replicates). The plates were incubated at room temperature for 30 min, and the cells were checked under a microscope for toxicity. After 30 minutes of treatment, the stimulation media was discarded and […] of Assay Lysis Buffer (provided in the Tropix kit) was added. The plates were incubated for 45 min @ 37° C. 20 μL of the lysate was transferred from stimulation plates into the pre-coated antibody plates (384-well) from the Tropix kit. 10 μL of AP conjugate and 20 μL of anti-cAMP antibody was added. The plates were incubated at room temperature while shaking for 1 hour. The plates were then washed 5 times with Wash Buffer, 70 μL per well for each wash. The plates were tapped to dry. 30 μL/well of CSPD/Saphire-II RTU substrate/enhancer solution was added and incubated for 45 min @ RT (shake). Signal for 1 sec/well in a Luminometer. (VICTOR-V) was measured.

Structures are written as SMILES. Where only a bound is given, the exact number is not on record here.

Chain of Y4R (P50391 whole entry): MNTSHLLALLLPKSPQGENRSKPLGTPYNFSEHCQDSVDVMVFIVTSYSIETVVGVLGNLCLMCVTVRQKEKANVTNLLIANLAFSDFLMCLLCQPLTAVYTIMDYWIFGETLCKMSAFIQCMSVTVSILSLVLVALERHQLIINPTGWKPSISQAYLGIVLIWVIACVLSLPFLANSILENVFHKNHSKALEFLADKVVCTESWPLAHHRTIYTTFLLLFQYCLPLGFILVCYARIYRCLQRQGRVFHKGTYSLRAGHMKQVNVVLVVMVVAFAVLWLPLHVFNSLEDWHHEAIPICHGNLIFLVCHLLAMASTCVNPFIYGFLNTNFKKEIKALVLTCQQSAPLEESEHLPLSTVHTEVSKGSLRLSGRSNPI

With `CCCCCCCCCCCCCC(=O)NCCCCCC(=O)N[C@H](C(=O)N[C@@H](CCCCNC(=O)CCOCCOCCOCCOCCOCCOCCOCCOCCOCCOCCOCCOCCOCCOCCOCCOCCOCCOCCOCCOCCOCCOCCOCCOC)C(=O)N1CCN(c2ccc3ncn(CC(=O)N[C@@H](CCCNC(N)=O)C(=O)N[C@@H](Cc4c[nH]cn4)C(=O)N[C@@H](Cc4ccc(O)cc4)C(=O)N[C@@H](CC(C)C)C(=O)N[C@@H](CC(N)=O)C(=O)N[C@@H](Cc4c[nH]c5ccccc45)C(=O)N[C@H](C(=O)N[C@H](C(=O)N[C@@H](CCCNC(=N)N)C(=O)N[C@@H](CCC(N)=O)C(=O)N(C)[C@@H](CCCNC(=N)N)C(=O)N[C@@H](Cc4ccc(O)cc4)C(N)=O)[C@@H](C)O)C(C)C)c(=O)c3c2)CC1)[C@@H](C)CC` [Example 37], the EC50 at Y5R was 4260 nM; on Y4R, greater than 6000 nM; at hNPY2R [1], 0.158 nM; at Y1R it was greater than 6000 nM; at hNPY2R [2] it was 2.8 nM.

Turning to `CCCCCCCCCCCCCCCC(=O)NCCCCCC(=O)N[C@H](C(=O)N[C@@H](CCCCNC(=O)CCOCCOCCOCCOCCOCCOCCOCCOCCOCCOCCOCCOC)C(=O)N1CCN(c2ccc3ncn(CC(=O)N[C@@H](CCCNC(N)=O)C(=O)N[C@@H](Cc4c[nH]cn4)C(=O)N[C@@H](Cc4ccc(O)cc4)C(=O)N[C@@H](CC(C)C)C(=O)N[C@@H](CC(N)=O)C(=O)N[C@@H](Cc4c[nH]c5ccccc45)C(=O)N[C@H](C(=O)N[C@H](C(=O)N[C@@H](CCCNC(=N)N)C(=O)N[C@@H](CCC(N)=O)C(=O)N(C)[C@@H](CCCNC(=N)N)C(=O)N[C@@H](Cc4ccc(O)cc4)C(N)=O)[C@@H](C)O)C(C)C)c(=O)c3c2)CC1)[C@@H](C)CC` [Example 31], the EC50 was 3510 nM on Y5R; greater than 6000 nM at Y4R; 0.111 nM on hNPY2R [1]; greater than 6000 nM on Y1R; 0.37 nM on hNPY2R [2].

Turning to `CCCCCCCCCCCCCCCCCCCC(=O)N[C@@H](CCC(=O)N[C@@H](CCC(=O)N[C@H](C(=O)N[C@@H](CCCCNC(=O)CCOCCOCCOCCOCCOCCOCCOCCOCCOCCOCCOCCOCCOCCOCCOCCOCCOCCOCCOCCOCCOCCOCCOCCOC)C(=O)N1CCN(c2ccc3ncn(CC(=O)N[C@@H](CCCNC(=N)N)C(=O)N[C@@H](Cc4c[nH]cn4)C(=O)N[C@@H](Cc4ccc(O)cc4)C(=O)N[C@@H](CC(C)C)C(=O)N[C@@H](CC(N)=O)C(=O)N[C@@H](Cc4c[nH]c5ccccc45)C(=O)N[C@H](C(=O)N[C@H](C(=O)N[C@@H](CCCNC(=N)N)C(=O)N[C@@H](CCC(N)=O)C(=O)N(C)[C@@H](CCCNC(=N)N)C(=O)N[C@@H](Cc4ccc(O)cc4)C(N)=O)[C@@H](C)O)C(C)C)c(=O)c3c2)CC1)[C@@H](C)CC)C(=O)O)C(=O)O` [Example 60], the EC50 is 2600 nM on Y5R; greater than 9000 nM at Y4R; 0.18 nM on hNPY2R [1]; greater than 9000 nM at Y1R; 0.29 nM at hNPY2R [2].

As to `CC[C@H](C)[C@H](NC(=O)CCCCCNC(=O)CCOCCOCCOCCOCCOCCOCCOCCOCCOCCOCCOCCOCCOCCOCCOCCOC)C(=O)N[C@@H](CCCCN)C(=O)N1CCN(c2ccc3ncn(CC(=O)N[C@@H](CCCNC(=N)N)C(=O)N[C@@H](Cc4c[nH]cn4)C(=O)N[C@@H](Cc4ccc(O)cc4)C(=O)N[C@@H](CC(C)C)C(=O)N[C@@H](CC(N)=O)C(=O)N[C@@H](Cc4c[nH]c5ccccc45)C(=O)N[C@H](C(=O)N[C@H](C(=O)N[C@@H](CCCNC(=N)N)C(=O)N[C@@H](CCC(N)=O)C(=O)N(C)[C@@H](CCCNC(=N)N)C(=O)N[C@@H](Cc4ccc(O)cc4)C(N)=O)[C@@H](C)O)C(C)C)c(=O)c3c2)CC1` [Example 19], the EC50 at Y5R was greater than 6000 nM; at Y4R, greater than 6000 nM; at hNPY2R [1], 0.424 nM; at Y1R, greater than 6000 nM; at hNPY2R [2] it was 0.26 nM.

Broadly, the EC50 is the concentration giving half of the maximal effect.

For the origin of these results see patent publication US20110172147A1, “NEUROPEPTIDE-2 RECEPTOR (Y-2R) AGONISTS” (priority 2009, published 2011).
